Test system: SW620 colon adenocarcinoma cells (wild-type B-RAF)
Test: SW620 cell growth inhibition (ATPlite)
Assay type: cell-based
Conditions: Homo sapiens, SW-620, 72 h; SW620, 3 days incubation
Method in brief: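 Cells plated overnight, then exposed 3 days at 37° C to 8-point 1:3 compound dilutions topping at 10 μM final. Viability read as ATPlite luminescence, proportional to cell number; IC50 from luminescence versus concentration.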

N#Cc1cnc2[nH]cc(C(=O)c3c(F)ccc(NS(=O)(=O)c4c(F)cccc4F)c3F)c2c1 [P-2029, N-[3-(5-Cyano-1H-pyrrolo[2,3-b]pyridine-3-carbonyl)-2,4-difluoro-phenyl]-2,6-difluoro-benzenesulfonamide]
IC50: > 10 µM

COc1ccnc2[nH]cc(C(=O)c3c(F)ccc(NS(=O)(=O)c4c(F)cccc4F)c3F)c12 [P-2031, N-[2,4-Difluoro-3-(4-methoxy-1H-pyrrolo[2,3-b]pyridine-3-carbonyl)-phenyl]-2,6-difluoro-benzenesulfonamide]
IC50: > 10 µM

O=C(c1c(F)ccc(NS(=O)(=O)c2c(F)cccc2F)c1F)c1c[nH]c2nccc(Cl)c12 [P-2033, N-[3-(4-Chloro-1H-pyrrolo[2,3-b]pyridine-3-carbonyl)-2,4-difluoro-phenyl]-2,6-difluoro-benzenesulfonamide]
IC50: > 10 µM

COc1ncc(-c2cnc3[nH]cc(C(=O)c4c(F)ccc(NS(=O)(=O)c5c(F)cccc5F)c4F)c3c2)cn1 [P-2043, N-{2,4-Difluoro-3-[5-(2-methoxy-pyrimidin-5-yl)-1H-pyrrolo[2,3-b]pyridine-3-carbonyl]-phenyl}-2,6-difluoro-benzenesulfonamide]
IC50: > 10 µM

N#Cc1cnc2[nH]cc(C(=O)c3cccc(NS(=O)(=O)c4ccccc4F)c3F)c2c1 [P-2051, N-[3-(5-Cyano-1H-pyrrolo[2,3-b]pyridine-3-carbonyl)-2-fluoro-phenyl]-2-fluoro-benzenesulfonamide]
IC50: > 10 µM

N#Cc1cnc2[nH]cc(C(=O)c3cccc(NS(=O)(=O)c4cc(F)ccc4F)c3F)c2c1 [P-2052, N-[3-(5-Cyano-1H-pyrrolo[2,3-b]pyridine-3-carbonyl)-2-fluoro-phenyl]-2,5-difluoro-benzenesulfonamide]
IC50: > 10 µM

N#Cc1cnc2[nH]cc(C(=O)c3cccc(NS(=O)(=O)c4cccc(F)c4)c3F)c2c1 [P-2053, N-[3-(5-Cyano-1H-pyrrolo[2,3-b]pyridine-3-carbonyl)-2-fluoro-phenyl]-3-fluoro-benzenesulfonamide]
IC50: > 10 µM

N#Cc1cnc2[nH]cc(C(=O)c3cccc(NS(=O)(=O)c4c(F)cccc4F)c3F)c2c1 [P-2054, N-[3-(5-Cyano-1H-pyrrolo[2,3-b]pyridine-3-carbonyl)-2-fluoro-phenyl]-2,6-difluoro-benzenesulfonamide]
IC50: > 10 µM

N#Cc1cnc2[nH]cc(C(=O)c3c(F)ccc(NS(=O)(=O)c4cccnc4)c3F)c2c1 [P-2072, Pyridine-3-sulfonic acid [3-(5-cyano-1H-pyrrolo[2,3-b]pyridine-3-carbonyl)-2,4-difluoro-phenyl]-amide]
IC50: > 10 µM

COc1ccnc2[nH]cc(C(=O)c3c(F)ccc(NS(=O)(=O)c4cccnc4)c3F)c12 [P-2073, Pyridine-3-sulfonic acid [2,4-difluoro-3-(4-methoxy-1H-pyrrolo[2,3-b]pyridine-3-carbonyl)-phenyl]-amide]
IC50: > 10 µM

CCCS(=O)(=O)Nc1ccc(F)c(C(=O)c2c[nH]c3ncc(-c4ccc(Cl)nc4)cc23)c1F [P-2154, Propane-1-sulfonic acid {3-[5-(6-chloro-pyridin-3-yl)-1H-pyrrolo[2,3-b]pyridine-3-carbonyl]-2,4-difluoro-phenyl}-amide]
IC50: > 10 µM

CCCS(=O)(=O)Nc1ccc(F)c(C(=O)c2c[nH]c3ncc(-c4ccc(F)nc4)cc23)c1F [P-2155, Propane-1-sulfonic acid {2,4-difluoro-3-[5-(6-fluoro-pyridin-3-yl)-1H-pyrrolo[2,3-b]pyridine-3-carbonyl]-phenyl}-amide]
IC50: > 10 µM

CCCS(=O)(=O)Nc1ccc(F)c(C(=O)c2c[nH]c3ncc(-c4ccc(S(=O)(=O)N5CCOCC5)cc4)cc23)c1F [P-2166, Propane-1-sulfonic acid (2,4-difluoro-3-{5-[4-(morpholine-4-sulfonyl)-phenyl]-1H-pyrrolo[2,3-b]pyridine-3-carbonyl}-phenyl)-amide]
IC50: < 10 µM

Reference: patent US8198273B2, “Compounds and methods for kinase modulation, and indications therefor” (Plexxikon Inc., priority 2009, dated 2012)
